Test results from ChEMBL document CHEMBL1201862, “PubChem BioAssay data set” (2004).
Active and inactive are the calls of the source. For most assays here, no stated cut-off is given here; in the data, actives have a measured EC50 and inactives only a lower limit.

Key:
[1] = cytotoxicity in HEK-293T cells, dose response, cytotoxicity control for BCR NF-kB inhibitor project, luminescence, B-cell screen hits (AID 489021); type: functional, cell-based;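 further: HEK-293T cells carrying an NF-kB luciferase reporter; cells exposed to compound for about 14 hours before viability readout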
CAAX prenyl protease 2 = target: T1, CAAX prenyl protease 2 (Saccharomyces cerevisiae S288c, UniProt Q03530); type: biochemical
T1 sequence (Q03530 whole entry): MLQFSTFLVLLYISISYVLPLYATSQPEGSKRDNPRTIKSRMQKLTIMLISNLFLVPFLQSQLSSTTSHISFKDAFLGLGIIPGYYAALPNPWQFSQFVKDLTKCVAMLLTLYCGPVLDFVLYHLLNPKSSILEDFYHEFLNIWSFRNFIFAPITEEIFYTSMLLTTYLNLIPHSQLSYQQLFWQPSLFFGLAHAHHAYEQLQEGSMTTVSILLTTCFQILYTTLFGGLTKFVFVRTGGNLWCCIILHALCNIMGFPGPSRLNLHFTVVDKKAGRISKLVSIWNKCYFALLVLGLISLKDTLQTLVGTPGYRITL

[2] = target: T2, RNA-binding protein pos-1 (Caenorhabditis elegans, UniProt G5EF15); assay: inhibitors of POS-1/mex-3 RNA binding, dose response, biochemical, fluorescence polarization (AID 1964);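 further: purified POS-1 fused to maltose binding protein made in E. coli; potency of compounds blocking POS-1 binding to fluorescent RNA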
T2 sequence (G5EF15 whole entry): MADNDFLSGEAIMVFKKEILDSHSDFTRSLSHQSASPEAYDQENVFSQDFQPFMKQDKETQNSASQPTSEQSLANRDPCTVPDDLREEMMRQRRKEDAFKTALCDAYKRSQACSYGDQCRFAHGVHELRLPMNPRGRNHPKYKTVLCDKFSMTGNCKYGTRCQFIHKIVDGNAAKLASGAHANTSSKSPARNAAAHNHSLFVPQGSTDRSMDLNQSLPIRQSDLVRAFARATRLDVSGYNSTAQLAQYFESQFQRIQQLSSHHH

[3] = inhibitors of firefly luciferase expression or activity, dose response, H4 neuroglioma cells, luminescence (AID 1990); type: functional, cell-based
[4] = Luminescence Cell-Based Dose Response HTS to Identify Inhibitors of 5'UTR Stem-Loop Driven Prion Protein mRNA Translation in H4 Neuroglioblastoma Cells. [Related pubchem assays: 1827 (Project Summary), 1813 (Primary HTS)]; type: functional
[5] = target: T3, Zinc finger protein mex-5 (Caenorhabditis elegans, UniProt Q9XUB2); assay: MEX-5/TCR-2 RNA interaction inhibitors, dose response, biochemical, C. elegans, fluorescence polarization (AID 1960)
T3 sequence (Q9XUB2 whole entry): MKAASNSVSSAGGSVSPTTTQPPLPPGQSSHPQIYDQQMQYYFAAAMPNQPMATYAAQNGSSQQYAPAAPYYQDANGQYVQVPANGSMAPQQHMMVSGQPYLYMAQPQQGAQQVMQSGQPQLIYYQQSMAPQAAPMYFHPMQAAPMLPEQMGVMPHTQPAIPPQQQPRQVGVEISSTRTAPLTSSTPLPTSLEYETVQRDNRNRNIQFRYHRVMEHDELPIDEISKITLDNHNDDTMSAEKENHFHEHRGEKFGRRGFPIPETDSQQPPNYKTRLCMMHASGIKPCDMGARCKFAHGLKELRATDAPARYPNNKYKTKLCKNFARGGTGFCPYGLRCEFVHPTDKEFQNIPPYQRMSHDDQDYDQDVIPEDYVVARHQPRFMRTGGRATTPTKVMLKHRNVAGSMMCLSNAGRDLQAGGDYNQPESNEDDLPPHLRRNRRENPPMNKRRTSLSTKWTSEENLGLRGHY

[6] = inhibitors of SNCA 5'UTR-driven reporter translation, confirmation, H4 neuroglioma cells, luminescence (AID 1988); type: functional, cell-based

Row | Compound | IC50 [1] | AC50 (CAAX prenyl protease 2) | EC50 [2] | EC50 [3] | EC50 [4] | EC50 [5] | EC50 [6]
1 | C=CCOc1ccc(NC(=O)C(=O)NCCCn2ccnc2)cc1 | > 80 µM (inactive) | – | – | – | – | – | –
2 | CCCn1c(O)c(N=NC(=O)CNC(=O)Cc2ccc(OC)cc2)c2ccccc21 | – | > 100 µM (inactive) | – | – | – | – | –
3 | COc1cccc(/C=C2\SC(=S)N(CCCC(=O)NC3=NCCS3)C2=O)c1 | > 80 µM (inactive) | – | > 300 µM (not active) | 11.8 µM (active) | 14 µM (active) | > 300 µM (not active) | 13.2 µM (active)
